Measured values: US20090088482A1, “Compositions and Methods For Treating Heart Failure” (The Trustees Of Columbia University In The City New York, priority 2003, published 2009)
Structures can show the parent of a compound that is named as a salt.

Columns and labels:
[1] = CHF patients, 8 mg b.i.d., three weeks; cited from earlier work
[2] = Cardiopulmonary exercise testing in a patient with NYHA Class III CHF treated with clenbuterol; format: in vivo, human; conditions: 40 mcg b.i.d., six weeks
Experimental: A patient with New York Heart Association Class III CHF with an ICD, currently taking a heart failure medical regimen, including carvedilol (a non-selective beta-blocking agent), lisinopril (an ACE inhibitor), digoxin and spiranolactone, has shortness of breath on moderate exertion and a peak oxygen consumption of 14 ml/kg/min during cardiopulmonary exercising testing.

SMILES | quadriceps bulk, muscle strength or fatigue, exercise capacity, symptom assessment scores [1] | tolerability of dose [2]
CC(C)(C)NCC(O)c1ccc(O)c(CO)c1 (centres unmarked) [salbutamol] | no change | 
CC(C)(C)NCC(O)c1cc(Cl)c(N)c(Cl)c1 (centres unmarked) [clenbuterol hydrochloride, Clenbuterol hydrochloride] |  | well-tolerated
